Like-named read-outs stand apart in the source and are kept apart here.
Columns and labels:
[1] = Water solubility test (Japanese Pharmacopoeia solubility test method); assay type: physicochemical; conditions: 20±5° C., dissolution in 30 min
Experimental: According to the Japanese Pharmacopoeia solubility test method, the compounds of Examples 1 and 7 of the present invention and the corresponding N-methyl unsubstituted compounds were examined for water solubility. To be specific, a test substance was powderized, placed in water and the mixture was vigorously shaken for 30 sec every 5 min at 20±5° C. The solubility was evaluated based on the degree of dissolution in 30 min by reference to the following Table 9.

[2] = Skin sensitivity test, LLNA-BrdU method (lymph node weight); assay type: in vivo; conditions: 5 w/v % in acetone/olive oil 4:1, transdermal to auricle once a day for 3 days, mice
Experimental: For application of an external bactericidal/disinfectant agent to the skin, the sensitivity (allergenicity) is desirably as small as possible. […] The sensitivity was evaluated by a Local lymph node assay (LLNA) method using Bromodeoxyuridine (BrdU). In this test, measurement of the amount of BrdU uptaken by the lymph node using an ELISA kit was not performed, and the evaluation was based solely on the weight increase of the lymph node.
8-Week-old female CBA/JN Crlj mice were grouped (3 per group) according to the adequate strafication method based on the body weight (about 20 g) on the first day of administration. A test substance was prepared to 5 w/v % for each test substance by using a mixed solution of acetone and olive oil (v/v=4:1, A00). This was repeatedly administered transdermally to the auricle of the mice at 25 μL/auricle (50 for both auricles) once a day for 3 days. Two days after the final administration, BrdU 10 mg/mL (0.5 mL/mouse) was intraperitoneally administered. Three days after the final transdermal administration (next day of BrdU administration), carbon dioxide was given by inhalation to a comfortable death, and the auricle lymph node was isolated and the weight thereof was measured.

[3] = test system: S. aureus ATCC 6538; assay: Bactericidal activity test (MBC measurement); assay type: cell-based, Staphylococcus aureus; conditions: Staphylococcus aureus, read-out: MBC
Experimental: (§1) Each strain was cultured in Trypticase Soy agar medium for 18 to 20 hr, suspended in 0.1% peptone saline, and prepared to OD 600 nm, 1.0 McFarland. The suspension was further diluted with 0.1% peptone saline to give a test bacteria solution (targeted value; 2×10^7 CFU/mL).
(§2) At 0.5, 1 and 3 min from the start of the reaction, a part of the reaction mixture was sampled and mixed with an equal amount of a neutralizing agent (10% Tween 80, 3% lecithin/aqueous solution) to terminate the bactericidal reaction. The reaction mixture was inoculated to a 96 well microplate dispensed with 180 μL of Tripticase Soy liquid medium in advance, and statically cultured at 37° C. for 20 to 24 hr. Thereafter, the presence or absence of growth was visually evaluated, and the minimum concentration at which growth was not observed was taken as the minimal bactericidal concentration (MBC value) of each action time. The numerical values in the Tables show MBC, the unit is μg/mL, S. aureus means Staphylococcus aureus, MRSA means methicillin-resistant Staphylococcus aureus, E. coli means Escherichia coli, and P. aeruginosa means Pseudomonas aeruginosa.

[4] = test system: E. coli ATCC 25922; assay: Bactericidal activity test (MBC measurement); assay type: cell-based, Escherichia coli; conditions: Escherichia coli, read-out: MBC
Experimental: as §1, §2

[5] = test system: P. aeruginosa PAO-1; assay: Bactericidal activity test (MBC measurement); assay type: cell-based, Pseudomonas aeruginosa; conditions: Pseudomonas aeruginosa, read-out: MBC
Experimental: as §1, §2

[6] = test system: P. aeruginosa ATCC 27853; assay: Bactericidal activity test (MBC measurement); assay type: cell-based, Pseudomonas aeruginosa; conditions: Pseudomonas aeruginosa, read-out: MBC
Experimental: as §1, §2

[7] = test system: MRSA ATCC 33591; assay: Bactericidal activity test (MBC measurement); assay type: cell-based, methicillin-resistant Staphylococcus aureus; conditions: Staphylococcus aureus, read-out: MBC
Experimental: as §1, §2

| SMILES | water (mL) to dissolve 1 g [1] [mL] | evaluation (water solubility) ([1]; criteria of Table 9) | SI value (Stimulation index, lymph node weight ratio to solvent group) [2] | MBC ([3]; ATCC6538, 0.5 min, S. aureus ATCC 6538, action time 0.5 min) [mg/L] | MBC ([3]; ATCC6538, 1 min, S. aureus ATCC 6538, action time 1 min) [mg/L] | MBC ([3]; ATCC6538, 0.05 h, S. aureus ATCC 6538, action time 3 min) [mg/L] | MBC ([4]; ATCC25922, 0.5 min, E. coli ATCC 25922, action time 0.5 min) [mg/L] | MBC ([4]; ATCC25922, 1 min, E. coli ATCC 25922, action time 1 min) [mg/L] | MBC ([4]; ATCC25922, 0.05 h, E. coli ATCC 25922, action time 3 min) [mg/L] | MBC ([5]; PAO1, 0.5 min, P. aeruginosa PAO-1, action time 0.5 min) [mg/L] | MBC ([5]; PAO1, 1 min, P. aeruginosa PAO-1, action time 1 min) [mg/L] | MBC ([5]; PAO1, 0.05 h, P. aeruginosa PAO-1, action time 3 min) [mg/L] | MBC ([6]; ATCC27853, 0.5 min, P. aeruginosa ATCC 27853, action time 0.5 min) [mg/L] | MBC ([6]; ATCC27853, 1 min, P. aeruginosa ATCC 27853, action time 1 min) [mg/L] | MBC ([6]; ATCC27853, 0.05 h, P. aeruginosa ATCC 27853, action time 3 min) [mg/L] | MBC ([7]; 0.5 min, MRSA ATCC 33591, action time 0.5 min) [mg/L] | MBC ([7]; 1 min, MRSA ATCC 33591, action time 1 min) [mg/L] | MBC ([7]; 0.05 h, MRSA ATCC 33591, action time 3 min) [mg/L] |
| --- | --- | --- | --- | --- | --- | --- | --- | --- | --- | --- | --- | --- | --- | --- | --- | --- | --- | --- |
| CCCCCCCCN(C)C1=NC(C)(C)NC(NCc2ccc(C)cc2)=N1 [Example 7, N^4-octyl-N^4-methyl-1,6-dihydro-6,6-dimethyl-N^2-(4-methylbenzyl)-1,3,5-triazine-2,4-diamine acetate] | 0.9 | very soluble (less than 1 mL) | 2.6 | – | – | – | – | – | – | – | – | – | – | – | – | – | – | – |
| CCCCCCCCN(C)C(=N)/N=C(\N)NCc1ccc(Cl)cc1.Cl [Example 27, N^5-octyl-N^5-methyl-N^1-(4-chlorobenzyl)biguanide hydrochloride] | – | – | 2.4 | 50 | 25 | 25 | 25 | 6.25 | 6.25 | 12.5 | 12.5 | 12.5 | 12.5 | 12.5 | 6.25 | 50 | 25 | 25 |
